Data as given in US20250099403A1, “IDENTIFICATION OF ACTIVITIES OF GUT MICROBE METABOLITES” (UNIVERSITY OF SOUTH CAROLINA, priority 2023, published 2025).

Columns and labels:
[1] = piroxicam-accelerated Il10-deficient mouse IBD model; type: in vivo
Experimental: Experimental validation of the predictions of Example 1 were carried out using a mouse model of IBD. […] Stimulation of mucosal Toll-like receptors (TLRs) stemming from this mucosal barrier breakdown was another factor in the selection of this model, as it has been previously shown that SoL A suppresses LPS-induced inflammation and LPS is well-known to activate TLR signaling. […]
Fecal material was collected from IBD 1/10−/−+piroxicam (n=7, female) and pre-IBD control//10−/−mice (n=4, female), extracted metabolites, and the abundance of SoLs was measured by targeted metabolomics using high performance liquid chromatography (HPLC)-high resolution mass spectrometry (HRMS). […] Metabolites with m/z corresponding to major SoLs were detected, specifically SoLs A and B, in all samples tested and their identities were unambiguously determined by HPLC-MS/MS. […]
Peak areas were calculated using TICs obtained after MS/MS fragmentation and used to measure the abundance of SoLs A and B. Significance was determined using Student's t-test. […] Significance was determined using Mann-Whitney U test. […]
Piroxicam-accelerated 1110−/−mouse IBD model and analysis. […] Mice were euthanized at 18 days to collect tissues for assessment and intestinal contents for quantification of SoLs. […] Inflammation scores of colon sections were blindly assessed using an Echo Revolve light microscope and accompanying software. […]

[2] = test system: Primary mouse macrophages; assay: inflammatory cytokine expression in primary mouse macrophages, agent alone (RT-qPCR); type: cell-based; details: agent by itself, n=3
Experimental: (§1) Primary mouse macrophages were treated with SoL A (as a representative of SoLs) either alone or together with LPS (an agonist of TLR4) or Pam3CSK4 (an agonist of TLR1/2) and the expression of three inflammatory cytokines was measured (IL-6, TNFα, and IL-1β).
Preparation and treatment of macrophages. Primary mouse macrophages were prepared by first introducing 3 mL of 3% thioglycolate to mice via intraperitoneal injection. After 3 days, 10 mL of chilled PBS was introduced intraperitoneally to flush out macrophages. The cell suspension was then separated by centrifugation at 300×g for 5 minutes. Cells were seeded in culture dishes containing DMEM with 10% FBS for 1 hour before being washed with serum-free DMEM two times to remove unattached cells. The cells were incubated in serum-free DMEM for 16 hours before treatment. To treat the macrophages, cells were incubated for 6 to 24 hours in DMEM without FBS with addition of LPS (Sigma-Aldrich), Pam3CSK4 (Invivogen), or SoL A. Cells were finally washed twice with Dulbecco's phosphate-buffered saline before being lysed for total RNA or protein extraction.
mRNA extraction and RT-qPCR in macrophage-based assays. […] The quality and quantity of RNA was then determined using a nanodrop and 1000 ng of mRNA from each sample was used for cDNA synthesis using a First-strand cDNA Synthesis System (Marligen Bioscience), qPCRs reactions were prepared in a 20 uL final volume containing Fast Start Universal SYBR Green Master (Rox) (Roche Applied Science), cDNA template, deionized water, and primers and probes for IL-1β, TNFα, IL-6, and the 18S rRNA which was used as a housekeeping gene Cycling conditions were 95° C. for 10 min followed by 40 cycles of 95° C. for 10 seconds, 60° C. for 15 seconds, and 68° C. for 20 seconds, then a melting curve analysis from 60° C. to 95° C. every 0.2° C. was obtained. […] Relative gene expression levels were calculated using the ΔΔCT method and expression levels of 18S were used to normalize the results.

MD-2 = biological target: T1, MD-2 (Homo sapiens, UniProt Q9Y6Y9); assay: ELISA-based displacement assay with biotinylated LPS; type: binding
T1 construct: purchased Novus Biologicals
T1 sequence (Q9Y6Y9 19-160): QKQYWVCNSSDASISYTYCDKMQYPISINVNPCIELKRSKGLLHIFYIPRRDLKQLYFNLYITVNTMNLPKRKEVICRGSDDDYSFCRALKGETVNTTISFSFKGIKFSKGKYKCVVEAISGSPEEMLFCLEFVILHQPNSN
Experimental: To experimentally determine if SoLs A and B bind to MD-2 and to what extent the SoLs compete with LPS for binding to MD-2, an ELISA-based displacement assay was conducted. Taking advantage of biotinylated LPS, which retains the activity of unconjugated LPS, absorbance generated by an HRP-linked streptavidin probe was measured to determine the relative amount of MD-2 that was bound with biotin-LPS as opposed to MD-2 bound with SoL A or B. 0.1, 1.0, and 10 µM concentrations of SOL A or B and 1 ng/ml biotin-LPS were administered to MD-2 in three sequences: 1) Sol first followed by LPS 1 hour later, 2) LPS first followed by Sol 1 hour later, and 3) both SoL A or B and LPS at the same time.
ELISA displacement assay. Solid-phase sandwich ELISA kits were purchased from Invitrogen. The ELISA experiments were performed according to the kit instructions, using 50 nM hMD-2 (Novus Biologicals), 1 ng/mL LPS-EB Biotin (Invivogen), and 0.1, 1.0, and 10 µM purified SoL A. SOL A was added to the assay 1 hour before, 1 hour after, or simultaneously with LPS-EB Biotin. Absorbance was measured at 450 nm using a BioTek microplate reader.

Macrophages = assay: Western blot of TLR4 downstream signaling in LPS-treated macrophages; type: cell-based; details: 100 ng/ml LPS, 30 minutes
Experimental: Macrophages were treated with 100 ng/ml LPS in the presence of increasing concentrations of Sol A or B (from 0 to 20 μM) for 30 minutes. Following treatment, all cellular protein was extracted using MPER lysis buffer (Thermo Scientific). Protein samples were loaded onto SDS-PAGE gels for separation, then transferred to nitrocellulose membranes (Amersham Biosciences). Primary antibodies and HRP-conjugated secondary antibodies (Cell Signaling Technology) were used to detect target proteins. Signal was detected using an ECL kit (Thermo Scientific). […] The housekeeping gene β-Actin was used as a loading control.

TLR4 = assay: LPS-induced cytokine expression in primary mouse macrophages (RT-qPCR); type: cell-based; details: SoL A together with LPS, p≤0.0001
Experimental: as §1
Preparation and treatment of macrophages. Primary mouse macrophages were prepared by first introducing 3 mL of 3% thioglycolate to mice via intraperitoneal injection. After 3 days, 10 mL of chilled PBS was introduced intraperitoneally to flush out macrophages. The cell suspension was then separated by centrifugation at 300×g for 5 minutes. […]
mRNA extraction and RT-qPCR in macrophage-based assays. […] The quality and quantity of RNA was then determined using a nanodrop and 1000 ng of mRNA from each sample was used for cDNA synthesis using a First-strand cDNA Synthesis System (Marligen Bioscience), qPCRs reactions were prepared in a 20 uL final volume containing Fast Start Universal SYBR Green Master (Rox) (Roche Applied Science), cDNA template, deionized water, and primers and probes for IL-1β, TNFα, IL-6, and the 18S rRNA which was used as a housekeeping gene Cycling conditions were 95° C. for 10 min followed by 40 cycles of 95° C. for 10 seconds, 60° C. for 15 seconds, and 68° C. for 20 seconds, then a melting curve analysis from 60° C. to 95° C. every 0.2° C. was obtained. […]

[3] = in vivo inflammation after intraperitoneal injection of SoL A; parameters: species or system mouse; details: 1 mg/kg i.p.
Experimental: To test whether SoL A can induce inflammation in vivo, mice were treated by intraperitoneal (i.p.) injection of 1 mg/kg of SOL A. At 2 hrs post-injection, FACS analysis of immune cells in the peritoneal exudate was performed.

THP-1 monocytes [4] = assay: M1 polarization of THP-1 derived macrophages (RT-qPCR of markers); type: cell-based; details: 10 µM SoL A with IFN-γ and LPS, 24 hours, n=3
Experimental: (§2) THP-1 monocytes were treated with IFN-γ and LPS to induce M1 polarization or IL-4 and IL-1β to induce M2 polarization. Successful induction of M1 and M2 polarization was confirmed by morphology changes and subsequent RT-qPCR quantification of cytokine profiles.
(§3) For all treatments, n=3 and significance was determined using one-way ANOVA: 0.001<p<0.01, *** 0.0001<p<0.001, and **** p<0.0001.
(§4) THP-1 monocytes were maintained in RPMI16 with 10% heat inactivated FBS, 1% Penicillin-Streptomycin-Ampotericin B, and 50 μM 2-mercaptoethanol prior to differentiation. The cells were differentiated into macrophages with 150 nM PMA for 48 hours. M1 polarization was induced by adding 20 ng/ml IFN-γ and […] LPS for 24 hours. M2 polarization was induced by adding 20 ng/ml IL-4 and 20 ng/ml IL-1β for 24 hours. In all tests, 10 µM Sol A was added at the same time as M1 and M2 differentiation agents. After 24 hours of treatment, total RNA was collected, and RT-qPCR was performed as described above.

TLR1/2 = assay: Pam3CSK4-induced cytokine expression in primary mouse macrophages (RT-qPCR); type: cell-based
Experimental: as §1
On FIG. 16, bars represent mean±standard error. For each treatment, n=3. Significance was determined using Student's t test: * p<0.05, **** p<[…] 0.0001.
Preparation and treatment of macrophages. Primary mouse macrophages were prepared by first introducing 3 mL of 3% thioglycolate to mice via intraperitoneal injection. After 3 days, 10 mL of chilled PBS was introduced intraperitoneally to flush out macrophages. The cell suspension was then separated by centrifugation at 300×g for 5 minutes. Cells were seeded in culture dishes containing DMEM with 10% FBS for 1 hour before being washed with serum-free DMEM two times to remove unattached cells. The cells were incubated in serum-free DMEM for 16 hours before treatment. […]
mRNA extraction and RT-qPCR in macrophage-based assays. […] Relative gene expression levels were calculated using the ΔΔCT method and expression levels of 18S were used to normalize the results.

peritoneal macrophages = assay: inflammatory cytokine expression in macrophages treated with purified SoL A (qRT-PCR); type: cell-based; details: 10UM (FIG. 32 legend)
THP-1 monocytes [5] = assay: M2 polarization of THP-1 derived macrophages (RT-qPCR of markers); type: cell-based; details: 10 µM SoL A with IL-4 and IL-1β, 24 hours, n=3
Experimental: as §2, §3, §4

[6] = SoL added first, LPS 1 hour later, vs LPS first or together, all concentrations 0.1, 1.0, 10 µM, 1 ng/ml biotin-LPS
[7] = moving from low to high concentrations of SoL (0.1, 1.0, 10 µM)

| Molecule | expression of inflammatory cytokines (IL-6, TNFα, IL-1β) compared to control [2] | percent absorbance (MD-2 bound with biotin-LPS) (MD-2; [6]) | percent absorbance (MD-2 bound with biotin-LPS) (MD-2; [7]) | LPS-induced IκBα degradation (Macrophages; SoL 0 to 20 μM) | LPS-induced phosphorylation of p38 and ERK1/2 (Macrophages; SoL 0 to 20 μM) | LPS-induced phosphorylation of p38 and ERK1/2 (Macrophages; SoL at 20 µM) | further results |
| --- | --- | --- | --- | --- | --- | --- | --- |
| CN1C(C(=O)Nc2ccccn2)=C(O)c2ccccc2S1(=O)=O [piroxicam] | – | – | – | – | – | – | histological analysis of mouse distal colon ([1]; 1/10−/− mice, diet with 100 ppm piroxicam, 18 days): induced intestinal inflammation; colon expression of inflammatory markers TNFα, NOS2, IL-6, and IL-1β ([1]; 1/10−/−+piroxicam mice vs control, Mann-Whitney U test): significantly increased |
| Pam3CSK4 | significant induction | – | – | – | – | – | – |
| CC(C)CCCCCCCCCCCC(=O)N[C@@H](CS(=O)(=O)O)[C@H](O)CCCCCCCCCCCC(C)C [SoL B, sulfobacin B] | – | marked decrease | decreased dramatically | concentration-dependently suppressed | reduced LPS-induced phosphorylation of p38 and ERK1/2 in a concentration-dependent manner | almost completely blocked | – |
| lipopolysaccharide [LPS] | significant induction | – | – | – | – | – | – |
| CC(C)CCCCCCCCCCC[C@@H](O)CC(=O)N[C@@H](CS(=O)(=O)O)[C@H](O)CCCCCCCCCCCC(C)C [SoL A, sulfobacin A] | mild to moderate effect | marked decrease | decreased dramatically | concentration-dependently suppressed | reduced LPS-induced phosphorylation of p38 and ERK1/2 in a concentration-dependent manner | almost completely blocked | expression of all three cytokines (IL-6, TNFα, IL-1β) induced by LPS (TLR4): significantly suppress; monocytes and neutrophils in the peritoneal exudate ([3]; 2 hrs post-injection, FACS): more monocytes (Mono) and neutrophils (Neut) were recruited; serum IL-6 levels ([3]; ELISA): significantly and consistently increased; production of M1-polarized macrophage markers IL-6, CXCL10, IL-12β, and TNFα (THP-1 monocytes [4]): significantly reduced; Pam3CSK4-induced IL-6 and TNFα expression (TLR1/2; SoL A together with Pam3CSK4): inhibited Pam3CSK4-induced IL-6 and TNFα to a smaller extent; IL-1β expression induced by Pam3CSK4 (TLR1/2; SoL A together with Pam3CSK4, p≤0.05): increasing; expression levels of pro-inflammatory cytokines IL-1a, IL-1B, IL-6, and TNFα (peritoneal macrophages): significantly increased; effect on M2 polarization (marker expression) (THP-1 monocytes [5]): mostly non-significant effect |
